{"source": "patent US11331327B2", "about": "“Antibacterial use of halogenated salicylanilides” (UNION therapeutics A/S, priority 2014, dated 2022)", "origin": "cited, not measured here", "settings": "cats, p.o.; cited from earlier work", "data": [{"smiles": "O=C(Nc1ccc([N+](=O)[O-])cc1Cl)c1cc(Cl)ccc1O", "note": "[Niclosamide, 5-chloro-N-(2-chloro-4-nitrophenyl)-2-hydroxybenz-amide]", "values": [{"measurement": "LD50", "value": "> 1000", "unit": "mg/kg"}]}]}
